One data set deals with Plasmodium berghei ANKA. The data set is described as follows: Inhibition of EEF development in Huh-7 human hepatoma cells infected with sporozoites (immunofluorescence microscopy). It is filed as cell-based. As to conditions: compound at 8 μM, 1.6 μM, 320 nM, 64 nM, 1 h before infection with 10,000 sporozoites per well. The source says:
To model this infection, the inventors have developed an assay monitoring infection and maturation of Plasmodium berghei ANKA, a mouse-pathogenic close relative of the human-pathogenic Plasmodium falciparum strain, in cultured human hepatoma cells. Huh human hepatoma cells, were cultivated in RPMI (Gibco/Invitrogen) medium containing 10% FBS, 1% non-essential amino acid solution (Gibco/Invitrogen), 1% penicillin/streptomycin solution (Gibco/Invitrogen), 1% glutamine (Gibco/Invitrogen) and 1% Hepes pH 8 (Gibco/Invitrogen). 4000-6000 cells per well were seeded in a volume of 100 μl/well. Sporozoites were obtained from Anopheles stephensi mosquitoes infected with P. berghei ANKA or P. yoelii. Salivary glands were dissected and collected in RPMI medium (GIBCO) on ice. Collected tissues were gently ground in the medium to release sporozoites. Tissue fragments were removed by centrifugation at 40×g for 3 min, and sporozoites were collected from the supernatant. Blt-1, Blt-2, and Blt-4 were purchased from ChemBridge Corporation (San Diego, USA). Ezetimibe (for chemical structure see FIG. 6 and structure (XXVI)) was derived from powdered Ezeterol tablets (Essex Pharma, UK). Each compound was dissolved in DMSO at a final concentration of 50 mM. 48 hours after seeding of 6000 Huh-7 cells per well, growth medium was replaced by fresh complete culture medium, containing the compounds in 4 different concentrations, generated by dilution series of the compound stock solutions in complete growth medium: 8 μM; 1.6 μM; 320 nM; 64 nM. […] Cells were imaged using a fully automated fluorescence microscope from MDC (Molecular Devices Corporation, CA, USA). […] Numerical readouts comprised of cell proliferation as measured by the number of nuclei per imaged field (Hoechst staining), cell confluency as measured by the percentage of the imaged field covered by cells (actin/Phalloidin staining), and number of EEFs per imaged field. […] Objects in a size range of 16-150 pixels were quantified. […]

The next data set concerns P. berghei ANKA. The data set is described as follows: Liver infection in mice, parasite 18S RNA by Real-Time PCR. The data set is classed as in vivo, Plasmodium berghei. As to conditions: C57Bl/6 mice. The protocol: Ezeterol tablets were used to prepare a 0.3 mg/ml solution of Ezetimibe in water. Experimental C5781/6 mice were treated by oral gavage with 200 μl of Ezetimibe solution (3 mg/kg) 2 hours prior to infection with sporozoites. To control mice, 200 μl of water were administered by oral gavage. Infection with Plasmodium berghei was performed by i.v. injection of 30 000 sporozoites (see FIG. 5). For BLT-1 treatment of C57Bl/6 mice (male, 6-8 weeks old), intra-peritoneal injections of 50 mg/kg of BLT-1 in DMSO were carried out prior to infection. Control mice were treated with DMSO only. Two hours later, mice were infected by intravenous injection with 3×10^4 P. berghei sporozoites (see FIG. 12).
Mice were sacrificed 40-42 hours after infection and their livers collected. Livers were placed in 4 ml cold lysis buffer (4 M guanidine thio-cyanate, 25 mM sodium citrate, pH 7.0 and 0.5% sarcosyl) and homogenised on ice with a tissue tearer. 1 ml aliquots of liver homogenate were kept at −80° C. until RNA extraction. Total RNA was extracted from 50 μl of liver homogenate with Qiagen's RNeasy RNA extraction kit following the instructions of the manufacturer. […]
P. berghei ANKA load and ScarB1 expression in the liver was quantified by Real-Time PCR using the SYBR Green Mix (Applied Biosystems) and primers designed for the 18S RNA of the parasite and primers for ScarB1. […]
(In general: Real-time PCR tracks product formation cycle by cycle.)

The next data set has as its system P. berghei. Description: EEF development in mouse primary hepatocytes infected with P. berghei sporozoites. As to conditions: 10 μM; full 24 hours of infection, first 2 hours only, or 2 hours after infection until 24 hours. The data set is classed as cell-based, Plasmodium berghei. How it is done: C57B1/6 freshly isolated mouse primary hepatocytes (1×10^5 cells per well) were seeded in 700 μl of Williams E medium supplemented with 1× glutamax (Gibco/Invitrogen), 4% fetal calf serum (Gibco/Invitrogen) and 1% penicillin/streptomycin (Gibco/Invitrogen) in 24 well plates incubated at 37° C. 5% CO2. After two days cells were treated with 10 μM BLT-1 for different time points: for the full 24 hours of infection with P. berghei (5×10^5 sporozoites), only during the first 2 hours of infection, or for the time of 2 hours after infection until evaluation at 24 hours. (see FIG. 14)

The next data set concerns P. yoelii. The data set is described as follows: P. yoelii EEF development in Hepa 1-6 cells. It is filed as cell-based, Plasmodium yoelii. As to conditions: 10 μM; full 24 hours of infection, first 2 hours only, or 2 hours after infection until 24 hours. How it is done:
Hepa 1-6 cells were cultured in complete DMEM medium (Gibco/Invitrogen) supplemented with 10% fetal calf serum (Gibco/Invitrogen) and 1% penicillin/streptomycin (Gibco/Invitrogen) incubated at 37° C. and 5% CO2. Sporozoites were obtained from Anopheles stephensi mosquitoes infected with P. berghei ANKA or P. yoelii. Salivary glands were dissected and collected in RPMI medium (GIBCO) on ice. Collected tissues were gently ground in the medium to release sporozoites. Tissue fragments were removed by centrifugation at 40×g for 3 min, and sporozoites were collected from the supernatant. Cells were treated with 10 μM BLT-1 for different time points: for the full 24 hours of infection with P. yoelii (1×10^5 sporozoites), only during the first 2 hours of infection, or for the time of 2 hours after infection until evaluation of infection at 24 hours (see FIG. 15).

As for `COc1ccccc1NC(=O)Nc1ccc2ccccc2c1` [BLT-4], the “EEF (Exo-Erythrocytic Forms) development, EEF number” value (shortened to “EEF … EEF number”) with Plasmodium berghei ANKA is recorded as “Inhibition of EEF development”.
With `CCCCCCC1CCC/C1=N\NC(N)=S` (stereo not shown) [BLT-1], the “EEF … EEF number” value in the data set on Plasmodium berghei ANKA was “Inhibition of EEF (Exo-Erythrocytic Forms) development”. Also, the “infection rate for liver in mice” value in the data set with P. berghei ANKA (50 mg/kg intra-peritoneal in DMSO two hours before i.v. infection with 3×10^4 P. berghei sporozoites) was “reduces infection rate for liver”. For the same compound, the “EEF development in Mouse Primary Hepatocytes” value with P. berghei was “Inhibition of EEF development”. Further, the “P. Yoelii EEF development in Hepa 1-6 cells” value in the data set on P. yoelii was “Inhibition of P. Yoelii EEF development”.
For `O=C1[C@H](CC[C@H](O)c2ccc(F)cc2)[C@@H](c2ccc(O)cc2)N1c1ccc(F)cc1` [Ezetimibe], in the data set on Plasmodium berghei ANKA, the “EEF … EEF number” value is on record as “Inhibition of EEF development”. Further, the “infection rate for liver in mice” value in the data set with P. berghei ANKA (3 mg/kg oral gavage 2 hours prior to i.v. infection with 30 000 sporozoites, livers 40-42 hours after infection) is “reduces infection rate for liver”.

The record behind these values is patent publication US8507546B2, “Use of inhibitors of scavenger receptor class proteins for the treatment of infectious diseases” (Instituto de Medicina Molecular, Faculdade de Medicina da …, priority 2006, dated 2013).
